Legend:
Smad 1/5/8 activity = assay: BRE-luciferase reporter assay; assay type: cell-based; conditions: H1299 cells; 10 μM Dorsomorphin or 1 μM DMH1, DMH2, LDN; 48 hours; vs DMSO
Description: Luciferase Assays. 10^6 H1299 cells were transfected with 2 μg of BRE-luciferace plasmid using a Nucleofector II. […] Cells were lysed with luciferase lysis buffer (Promega). Samples were added to luciferase assay substrate (Promega) and luminsescence measured by the TD-20/20 Luminometer (Turner Designs/Turner BioSystems, Sunnyvale, Calif.). Control samples included luciferase assay substrate alone and luciferase assay substrate plus 1× reporter lysis buffer.

[1] = system: phosphorylated Smad 1/5/8; assay: Western blot for phosphorylated Smad 1/5/8; assay type: cell-based; conditions: for level of phosphorylated Smad 1/5/8 expression: lung cancer cell lines (H1299, A549)
Description: (§1) Western Blot Analysis. Total cellular protein was prepared using RIPA buffer containing a protease inhibitor cocktail and protein concentration was measured using the BCA assay as described. In brief, protein was analyzed by SDS-PAGE, transferred to nitrocellulose (Schleicher and Schuell, Keene, N.H.). After blocking, the blots were incubated overnight at 4° C. with the appropriate primary antibody in Tris-buffered saline with 1% Tween (TBST) and 5% non-fat milk. Secondary antibodies were applied for 1 hour at room temperature. Specific proteins were detected using the enhanced chemiluminescence system (Amersham, Arlington Heights, Ill.). The primary antibodies that were used were rabbit monoclonal anti-pSmad 1/5/8 (Cell signaling Technology, Danvers Mass.) rabbit anti-actin, an affinity isolated antigen specific antibody (Sigma, Saint Louis, Mo.), rabbit monoclonal anti-Id1 and rabbit monoclonal anti-Id3 (Calbioreagents, San Mateo, Calif.).

Id1 and Id3 protein = assay: Western blot for Id1 and Id3; assay type: cell-based; conditions: for protein levels of Id1 and Id3: A549 and H1299 cells
Description: as §1

[2] = system: constitutively active alk6 (ca-alk6); assay: BRE-luciferase with constitutively active alk6 in H1299 cells; assay type: cell-based; conditions: 1 μM antagonist
Description: (§2) To assess the effects of antagonists on a specific type I BMP receptor, 2 μg of constitutively active ca-alk3 and ca-alk6 expression vectors were co-transfected with the BRE-luciferase reporter into H1299 cells with Nucleofector II. Control cells were co-transfected with the pcDNA3 expression vector. After 48 hours the cells were treated with DMSO or a BMP receptor antagonist for 48 hours and luminescence was measured.

A549 cells [3] = assay: Cell counts after 7 days; assay type: cell-based; conditions: DMEM 5% FCS, 10 μM Dorsomorphin or 1 μM DMH1, DMH2, LDN
Description: (§3) Cell Counts. A549 and H1299 cells were plated into 6 well plates with 100,000 cells per well. Cells were treated with DMSO or a BMP receptor antagonist for 7 days. The cells were detached with trypsin, stained with trypan blue, and the number of live cells counted using a hemacytometer.

H1299 cells [4] = assay: Cell counts after 7 days; assay type: cell-based; conditions: H1299, DMEM 5% FCS, 10 μM Dorsomorphin or 1 μM DMH1, DMH2, LDN
Description: as §3

A549 cells [5] = assay: Clonogenic growth assay; assay type: cell-based; conditions: 1 μM, 2 weeks
Description: (§4) Clonigenic Growth Assay. A549 and H1299 cells were plated into 6 well plates with 500 cells per well. The next day the cells were treated with DMSO or a BMP receptor antagonist for 2 weeks. The colonies were stained with Diff-Quick (IMEB Inc. San Marcos, Calif.) and the total number of colonies per well counted.

H1299 cells [6] = assay: Clonogenic growth assay; assay type: cell-based; conditions: 1 μM, 2 weeks
Description: as §4

alk2 = molecular target: T1, alk2 (Mus musculus, UniProt P37172); conditions: reported [26]; cited from earlier work
T1 construct: host or cells: C2C12
T1 sequence (P37172 21-509): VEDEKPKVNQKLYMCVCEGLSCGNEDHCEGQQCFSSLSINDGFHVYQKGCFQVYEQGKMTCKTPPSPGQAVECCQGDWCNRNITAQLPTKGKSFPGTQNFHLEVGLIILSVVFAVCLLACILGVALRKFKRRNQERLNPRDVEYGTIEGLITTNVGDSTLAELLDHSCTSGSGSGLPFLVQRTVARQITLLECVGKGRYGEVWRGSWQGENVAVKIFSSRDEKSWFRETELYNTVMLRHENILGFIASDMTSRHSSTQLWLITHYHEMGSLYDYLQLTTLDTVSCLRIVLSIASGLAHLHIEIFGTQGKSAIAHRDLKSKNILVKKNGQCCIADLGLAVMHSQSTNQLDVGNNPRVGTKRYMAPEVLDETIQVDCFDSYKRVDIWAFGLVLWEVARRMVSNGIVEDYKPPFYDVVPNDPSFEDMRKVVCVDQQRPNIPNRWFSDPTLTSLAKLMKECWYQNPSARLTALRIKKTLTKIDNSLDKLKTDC

alk3 = molecular target: T2, alk3 (Mus musculus, UniProt P36895); conditions: reported [26]; cited from earlier work
T2 construct: host or cells: C2C12

alk6 = molecular target: T3, alk6 (Mus musculus, UniProt P36898); conditions: reported [26]; cited from earlier work
T3 construct: host or cells: C2C12

AMP kinase = conditions: compared with Dorsomorphin and LDN; cited from earlier work
[7] = system: Id1, Id2, and Id3 expression; assay: Quantitative RT-PCR for Id family members; assay type: cell-based; conditions: A549 and H1299 cell lines; 10 μM Dorsomorphin, 1 μM DMH1 or DMH2; 48 hours
Description: Quantification of Gene Expression. RNA was extracted using the RNeasy kit as per the manufacturer's instructions (Qiagen, Valencia, Calif.). DNAase was used to remove any DNA contamination. cDNA was generated using Advantage RT for PCR kit (BD BiosciencesClontech, Palo Alto, Calif.). Quantitative PCR was performed with the Stratagene Mx3005p (Agilent Technologies) and predesigned validated Taq-Man gene expression assays according to the manufacturer's specifications (Applied Biosystems, Foster City, Calif.). Reference numbers used are: GAPDH (Hs99999905_m1), ACVRL1 (alk1) (Hs00163543_m1), ACVR1A (alk2) (Hs00153836_m1), BMR1A (alk3) (Hs00831730_s1), BMPR1B (alk6) (Hs00176144_m1), Id1 (Hs00357821_g1), Id2 (Hs00747379_m1), and Id3 (Hs00171409-m1). Negative control included all reagents except cDNA. Expression was normalized to GAPDH using the formula […].

[8] = molecular target: T4, constitutively active alk3 (ca-alk3) (Homo sapiens, UniProt P36894, Q233D); assay: BRE-luciferase with constitutively active alk3 in H1299 cells; assay type: cell-based; conditions: 1 μM antagonist
T4 construct: expressed in transfected cells; host or cells: H1299
Description: as §2

A549 cells [9] = assay: Soft agar assay (anchorage independent growth); assay type: cell-based; conditions: A549 in soft agar; 1 μM; 2 weeks
Description: (§5) Soft Agar Assay. A 1% agar mixture was prepared in sterile double-distilled water, microwaved, and cooled to 40° C. in a water bath. DMEM was also incubated at 40° C. Equal amounts of each were mixed and 1 ml added to each well of a six well plate. The base agar was allowed to solidify. A 0.7% agar mixture was prepared then cooled to 40° degrees. Cells were trypsinized and counted. Cells (2500 cells per well) were placed in pre-warmed DMEM containing DMSO or DMH1 […]. The treated cells were then mixed with the 0.7% agar and 2 ml placed on top of the base agar. Once solidified, 1 ml of DMEM was placed on top of the agar. […]

H1299 cells [10] = assay: Soft agar assay (anchorage independent growth); assay type: cell-based; conditions: H1299 in soft agar; 1 μM; 2 weeks
Description: as §5

A549 cells [11] = assay: Ethidium bromide uptake cell death assay; assay type: cell-based; conditions: 48 hours, 10 μM Dorsomorphin or 1 μM selective antagonist
Description: Cell Death Assay: A549 and H1299 cells were plated in 6 well plates with 10^6 cells per well. Cells were treated with DMSO or a BMP receptor antagonist for 12 and 48 hours. Adherent and floating cells were harvested and incubated with 0.1 mg/ml of ethidium bromide. Immediately after staining approximately 100 cells were counted and the percentage of cells that took up ethidium bromide was determined.

VEGF II = VEGF II (Homo sapiens, UniProt P35968); conditions: compared with Dorsomorphin and LDN; cited from earlier work
TGFβ receptor alk5 = molecular target: T5, TGFβ receptor alk5 (Homo sapiens, UniProt P36897); conditions: compared with Dorsomorphin and LDN; cited from earlier work
T5 sequence (P36897 34-503): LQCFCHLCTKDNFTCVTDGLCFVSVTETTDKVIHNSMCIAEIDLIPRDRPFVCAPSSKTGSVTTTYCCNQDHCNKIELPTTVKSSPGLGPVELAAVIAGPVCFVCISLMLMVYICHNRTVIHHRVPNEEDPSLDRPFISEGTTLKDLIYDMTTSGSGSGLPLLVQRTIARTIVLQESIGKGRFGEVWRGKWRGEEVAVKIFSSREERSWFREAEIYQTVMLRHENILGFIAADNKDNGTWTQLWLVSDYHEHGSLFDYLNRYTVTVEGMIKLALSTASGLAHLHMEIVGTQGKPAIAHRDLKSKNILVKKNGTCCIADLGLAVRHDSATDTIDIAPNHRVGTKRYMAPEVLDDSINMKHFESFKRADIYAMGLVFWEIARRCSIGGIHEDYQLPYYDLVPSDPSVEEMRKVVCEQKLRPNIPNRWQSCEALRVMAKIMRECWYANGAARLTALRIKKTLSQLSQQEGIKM

[12] = molecular target: platelet-derived growth factor receptor-β (Homo sapiens, UniProt P09619); conditions: compared with Dorsomorphin and LDN; cited from earlier work
platelet-derived growth factor receptor-β, sequence (P09619 33-1106, species assumed): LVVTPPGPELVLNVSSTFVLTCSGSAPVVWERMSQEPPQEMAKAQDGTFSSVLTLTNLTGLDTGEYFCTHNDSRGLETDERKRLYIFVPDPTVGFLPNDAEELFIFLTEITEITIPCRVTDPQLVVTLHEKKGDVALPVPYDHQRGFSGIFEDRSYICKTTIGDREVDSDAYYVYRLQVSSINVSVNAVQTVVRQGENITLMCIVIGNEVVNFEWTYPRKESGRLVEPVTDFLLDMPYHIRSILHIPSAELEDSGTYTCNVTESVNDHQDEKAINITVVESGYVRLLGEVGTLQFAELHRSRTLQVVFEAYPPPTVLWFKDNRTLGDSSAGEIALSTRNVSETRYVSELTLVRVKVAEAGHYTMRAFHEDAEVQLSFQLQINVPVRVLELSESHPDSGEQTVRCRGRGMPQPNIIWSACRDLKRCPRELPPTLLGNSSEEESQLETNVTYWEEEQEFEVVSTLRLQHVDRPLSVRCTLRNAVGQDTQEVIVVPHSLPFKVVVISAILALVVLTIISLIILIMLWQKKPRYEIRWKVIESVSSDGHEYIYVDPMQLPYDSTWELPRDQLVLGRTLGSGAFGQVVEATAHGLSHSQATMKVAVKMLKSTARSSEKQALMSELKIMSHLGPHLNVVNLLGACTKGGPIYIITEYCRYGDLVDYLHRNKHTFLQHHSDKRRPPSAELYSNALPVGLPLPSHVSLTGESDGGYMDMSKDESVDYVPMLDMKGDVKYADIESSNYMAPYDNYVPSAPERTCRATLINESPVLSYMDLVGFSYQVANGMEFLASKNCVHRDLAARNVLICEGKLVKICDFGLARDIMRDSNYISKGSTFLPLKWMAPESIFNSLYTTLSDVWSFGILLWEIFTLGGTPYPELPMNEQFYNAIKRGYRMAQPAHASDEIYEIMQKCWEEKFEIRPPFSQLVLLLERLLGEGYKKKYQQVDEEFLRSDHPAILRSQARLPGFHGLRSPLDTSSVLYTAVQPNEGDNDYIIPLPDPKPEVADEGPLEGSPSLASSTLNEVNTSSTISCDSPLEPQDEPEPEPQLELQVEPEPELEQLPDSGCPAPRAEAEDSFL

T2 sequence (P36895 24-532): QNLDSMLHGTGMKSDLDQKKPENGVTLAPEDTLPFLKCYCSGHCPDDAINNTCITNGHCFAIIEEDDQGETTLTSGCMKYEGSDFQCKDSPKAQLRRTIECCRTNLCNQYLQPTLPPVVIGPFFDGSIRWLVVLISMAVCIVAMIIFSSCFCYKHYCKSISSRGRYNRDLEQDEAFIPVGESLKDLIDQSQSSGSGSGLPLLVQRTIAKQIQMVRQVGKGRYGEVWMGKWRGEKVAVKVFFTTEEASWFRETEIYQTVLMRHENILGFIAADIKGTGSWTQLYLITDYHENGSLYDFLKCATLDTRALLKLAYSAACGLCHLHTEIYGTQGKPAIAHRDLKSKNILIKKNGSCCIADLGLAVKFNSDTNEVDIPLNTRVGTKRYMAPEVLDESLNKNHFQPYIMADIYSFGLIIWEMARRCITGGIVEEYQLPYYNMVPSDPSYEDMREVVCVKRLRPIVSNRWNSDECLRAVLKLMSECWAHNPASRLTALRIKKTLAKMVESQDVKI
T3 sequence (P36898 14-502): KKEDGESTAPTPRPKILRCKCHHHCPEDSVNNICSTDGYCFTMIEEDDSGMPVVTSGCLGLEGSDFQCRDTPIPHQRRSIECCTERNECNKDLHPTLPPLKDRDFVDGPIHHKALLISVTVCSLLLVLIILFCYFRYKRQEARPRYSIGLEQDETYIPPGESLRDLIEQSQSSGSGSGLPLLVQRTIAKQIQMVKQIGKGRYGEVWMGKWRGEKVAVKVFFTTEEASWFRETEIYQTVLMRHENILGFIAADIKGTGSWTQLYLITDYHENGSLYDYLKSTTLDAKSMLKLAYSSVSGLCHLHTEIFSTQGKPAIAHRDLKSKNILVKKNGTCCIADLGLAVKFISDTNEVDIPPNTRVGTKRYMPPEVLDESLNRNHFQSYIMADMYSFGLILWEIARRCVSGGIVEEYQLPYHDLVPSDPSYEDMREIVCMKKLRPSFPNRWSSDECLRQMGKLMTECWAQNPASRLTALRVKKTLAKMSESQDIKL
VEGF II, sequence (P35968 20-1356): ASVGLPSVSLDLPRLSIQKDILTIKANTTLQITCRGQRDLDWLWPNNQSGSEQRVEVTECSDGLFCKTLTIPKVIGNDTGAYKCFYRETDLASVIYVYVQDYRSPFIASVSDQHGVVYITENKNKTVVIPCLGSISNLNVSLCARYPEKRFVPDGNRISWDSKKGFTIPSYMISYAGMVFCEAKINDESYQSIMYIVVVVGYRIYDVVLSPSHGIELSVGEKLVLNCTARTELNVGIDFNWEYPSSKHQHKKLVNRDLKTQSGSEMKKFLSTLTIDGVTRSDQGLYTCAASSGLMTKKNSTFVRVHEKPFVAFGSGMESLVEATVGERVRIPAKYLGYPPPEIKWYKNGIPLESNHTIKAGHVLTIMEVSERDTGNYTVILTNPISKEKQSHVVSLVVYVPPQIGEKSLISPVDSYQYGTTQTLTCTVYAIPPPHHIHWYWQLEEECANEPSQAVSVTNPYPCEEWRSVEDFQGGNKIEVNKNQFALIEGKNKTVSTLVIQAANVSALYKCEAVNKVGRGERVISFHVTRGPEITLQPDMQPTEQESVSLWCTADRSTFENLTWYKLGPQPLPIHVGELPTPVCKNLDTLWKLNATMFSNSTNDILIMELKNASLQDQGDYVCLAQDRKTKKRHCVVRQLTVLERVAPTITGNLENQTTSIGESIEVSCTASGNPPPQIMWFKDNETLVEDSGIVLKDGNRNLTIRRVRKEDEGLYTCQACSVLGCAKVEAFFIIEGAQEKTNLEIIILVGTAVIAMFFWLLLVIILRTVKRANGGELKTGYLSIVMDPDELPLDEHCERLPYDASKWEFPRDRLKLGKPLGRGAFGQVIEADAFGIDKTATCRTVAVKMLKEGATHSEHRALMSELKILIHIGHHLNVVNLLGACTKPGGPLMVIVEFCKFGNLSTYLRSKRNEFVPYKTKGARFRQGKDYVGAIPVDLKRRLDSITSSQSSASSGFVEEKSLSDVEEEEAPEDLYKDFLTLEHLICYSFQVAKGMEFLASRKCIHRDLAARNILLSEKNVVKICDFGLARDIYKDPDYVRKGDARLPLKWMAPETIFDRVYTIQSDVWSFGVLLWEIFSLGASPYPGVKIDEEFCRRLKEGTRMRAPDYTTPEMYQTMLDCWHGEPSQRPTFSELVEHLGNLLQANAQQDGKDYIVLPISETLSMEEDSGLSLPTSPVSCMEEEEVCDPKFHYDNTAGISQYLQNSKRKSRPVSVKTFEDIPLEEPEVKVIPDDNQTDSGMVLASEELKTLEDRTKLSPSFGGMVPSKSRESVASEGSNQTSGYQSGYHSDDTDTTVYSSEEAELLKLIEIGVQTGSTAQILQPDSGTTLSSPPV
T4 sequence (P36894 24-532 Q233D): as the sequence (P36895 24-532) above, with L16S, P21S, T74A, V133L, V142I, G164R, Q210D, I373V counted along it

Structure (SMILES) | Smad 1/5/8 activity (BRE-luciferase activity) (Smad 1/5/8 activity) | level of phosphorylated Smad 1/5/8 expression [1] | protein levels of Id1 and Id3 (Id1 and Id3 protein) | inhibition of ca-alk6 activity (BRE-luciferase) [2] | inhibition of alk2 activity (alk2) | inhibition of alk3 activity (alk3) | inhibition of alk6 activity (alk6) | activity for AMP kinase (comparison) (AMP kinase) | further results
c1ccc2c(-c3cnn4cc(-c5ccc(N6CCNCC6)cc5)cnc34)ccnc2c1 [LDN, LDN-193189, reference compound] | significant decrease | decreased | decrease | very similar to that of DMH2 | effectively inhibits | effectively inhibits | effectively inhibits | less AMP kinse activity than Dorsomorphin | phosphorylated Smad 1/5/8 expression ([1]; A549 cells): decrease; cell growth (number of cells) (A549 cells [3]): more growth inhibition than DMH1; cell growth (number of cells) (H1299 cells [4]): more growth inhibition than DMH1; clonogenic growth (A549 cells [5]): inhibited more by DMH2 and LDN than DMH1; clonogenic growth (H1299 cells [6]): inhibited more by DMH2 and LDN than DMH1
CC(C)Oc1ccc(-c2cnc3c(-c4ccnc5ccccc45)cnn3c2)cc1 [DMH1] | significant decrease | decreased | decrease | partially inhibited alk6 but not as effectively as DMH2 | inhibited | inhibited | negligible inhibitory effects | less activity | Id1, Id2, and Id3 expression (mRNA) [7]: significantly decreased; reduction of Id1 protein expression (comparison) (Id1 and Id3 protein; H1299 and A549 cells, 1 μM): greater reduction of Id1 in H1299 cells compared to A549 cells; inhibition of ca-alk3 activity (BRE-luciferase) [8]: significant inhibition; anchorage independent growth (A549 cells [9]): significantly reduced; anchorage independent growth (H1299 cells [10]): significantly reduced; cell death (percentage of cells taking up ethidium bromide) (A549 cells [11]): significant increase in cell death; activity for VEGF II (comparison) (VEGF II): less activity; activity for TGFβ receptor alk5 (comparison) (TGFβ receptor alk5): less activity; activity for platelet-derived growth factor receptor-β (comparison) [12]: less activity

From patent US9505763B2, “Cancer treatment using BMP inhibitor” (Vanderbilt University, priority 2011, dated 2016)
